Experiments:
Test in all cases: relative viability (nuclei count vs DMSO), 5 days (fraction); higher = more cells survive
201T = test system: 201T
Summary of the method: (§1)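 Nuclei were stained with Hoechst during a one-step fixation (final 0.05% Triton X-100, 1% formaldehyde, 1 ug/ml Hoechst) carried out 5 days after dosing, then counted on 4× images. The cells, lung cancer lines in 1536-well plates, had been dosed by pin tool the day after seeding with one drug alone or a fixed anchor-drug dose plus five library-drug doses (not always all listed) in √10 steps. Relative viability is the nuclei count in treated wells divided by that in vehicle wells, and each value is the median of duplicate plates.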

BEN = test system: BEN
Summary of the method: as §1

COR-L 105 = test system: COR-L 105
Summary of the method: as §1

EKVX = test system: EKVX
Summary of the method: as §1

EPLC-272H = test system: EPLC-272H
Summary of the method: as §1

H3255 = test system: H3255
Summary of the method: as §1

HCC-44 = test system: HCC-44
Summary of the method: as §1

HCC-827 = test system: HCC-827
Summary of the method: as §1

HOP-62 = test system: HOP-62
Summary of the method: as §1

LCLC-97TM1 = test system: LCLC-97TM1
Summary of the method: as §1

LOU-NH91 = test system: LOU-NH91
Summary of the method: as §1

LU99A = test system: LU99A
Summary of the method: as §1

NCI-H1395 = test system: NCI-H1395
Summary of the method: as §1

NCI-H1437 = test system: NCI-H1437
Summary of the method: as §1

NCI-H1666 = test system: NCI-H1666
Summary of the method: as §1

NCI-H1975 = test system: NCI-H1975
Summary of the method: as §1

NCI-H2085 = test system: NCI-H2085
Summary of the method: as §1

NCI-H2087 = test system: NCI-H2087
Summary of the method: as §1

NCI-H2342 = test system: NCI-H2342
Summary of the method: as §1

NCI-H358 = test system: NCI-H358
Summary of the method: as §1

NCI-H647 = test system: NCI-H647
Summary of the method: as §1

PC-3 [JPC-3] = test system: PC-3 [JPC-3]
Summary of the method: as §1

SW 1573 = test system: SW 1573
Summary of the method: as §1

## NC(=O)Nc1cc(-c2cccc(F)c2)sc1C(=O)N[C@H]1CCCNC1 [AZD7762] + Nc1ncn([C@H]2C[C@H](O)[C@@H](CO)O2)c(=O)n1 [Decitabine] (partner 2 µM)
201T; first compound 0.01 µM
  relative viability: 0.831
201T; first compound 0.03162 µM
  relative viability: 0.872
201T; first compound 0.1 µM
  relative viability: 0.903
201T; first compound 0.3162 µM
  relative viability: 0.909
201T; first compound 1 µM
  relative viability: 0.938
BEN; first compound 0.01 µM
  relative viability: 0.801
BEN; first compound 0.03162 µM
  relative viability: 0.984
BEN; first compound 0.1 µM
  relative viability: 0.874
BEN; first compound 0.3162 µM
  relative viability: 0.872
BEN; first compound 1 µM
  relative viability: 0.673
COR-L 105; first compound 0.01 µM
  relative viability: 0.711
COR-L 105; first compound 0.03162 µM
  relative viability: 0.664
COR-L 105; first compound 0.1 µM
  relative viability: 0.643
COR-L 105; first compound 0.3162 µM
  relative viability: 0.55
COR-L 105; first compound 1 µM
  relative viability: 0.508
EKVX; first compound 0.01 µM
  relative viability: 0.456
EKVX; first compound 0.03162 µM
  relative viability: 0.388
EKVX; first compound 0.1 µM
  relative viability: 0.326
EKVX; first compound 0.3162 µM
  relative viability: 0.395
EKVX; first compound 1 µM
  relative viability: 0.37
EPLC-272H; first compound 0.01 µM
  relative viability: 0.352
EPLC-272H; first compound 0.03162 µM
  relative viability: 0.445
EPLC-272H; first compound 0.1 µM
  relative viability: 0.356
EPLC-272H; first compound 0.3162 µM
  relative viability: 0.421
EPLC-272H; first compound 1 µM
  relative viability: 0.239
H3255; first compound 0.01 µM
  relative viability: 0.528
H3255; first compound 0.03162 µM
  relative viability: 0.708
H3255; first compound 0.1 µM
  relative viability: 0.683
H3255; first compound 0.3162 µM
  relative viability: 0.599
H3255; first compound 1 µM
  relative viability: 0.625
HCC-44; first compound 0.01 µM
  relative viability: 0.994
HCC-44; first compound 0.03162 µM
  relative viability: 0.959
HCC-44; first compound 0.1 µM
  relative viability: 1.01
HCC-44; first compound 0.3162 µM
  relative viability: 0.987
HCC-44; first compound 1 µM
  relative viability: 1.08
HCC-827; first compound 0.01 µM
  relative viability: 0.312
HCC-827; first compound 0.03162 µM
  relative viability: 0.428
HCC-827; first compound 0.1 µM
  relative viability: 0.362
HCC-827; first compound 0.3162 µM
  relative viability: 0.338
HCC-827; first compound 1 µM
  relative viability: 0.233
HOP-62; first compound 0.01 µM
  relative viability: 0.216
HOP-62; first compound 0.03162 µM
  relative viability: 0.23
HOP-62; first compound 0.1 µM
  relative viability: 0.248
HOP-62; first compound 0.3162 µM
  relative viability: 0.284
HOP-62; first compound 1 µM
  relative viability: 0.299
LCLC-97TM1; first compound 0.01 µM
  relative viability: 0.259
LCLC-97TM1; first compound 0.03162 µM
  relative viability: 0.265
LCLC-97TM1; first compound 0.1 µM
  relative viability: 0.273
LCLC-97TM1; first compound 0.3162 µM
  relative viability: 0.303
LCLC-97TM1; first compound 1 µM
  relative viability: 0.346
LOU-NH91; first compound 0.01 µM
  relative viability: 0.823
LOU-NH91; first compound 0.03162 µM
  relative viability: 0.796
LOU-NH91; first compound 0.1 µM
  relative viability: 0.816
LOU-NH91; first compound 0.3162 µM
  relative viability: 0.761
LOU-NH91; first compound 1 µM
  relative viability: 0.673
LU99A; first compound 0.01 µM
  relative viability: 0.863
LU99A; first compound 0.03162 µM
  relative viability: 0.911
LU99A; first compound 0.1 µM
  relative viability: 0.941
LU99A; first compound 0.3162 µM
  relative viability: 0.958
LU99A; first compound 1 µM
  relative viability: 0.635
NCI-H1395; first compound 0.01 µM
  relative viability: 0.866
NCI-H1395; first compound 0.03162 µM
  relative viability: 0.727
NCI-H1395; first compound 0.1 µM
  relative viability: 0.65
NCI-H1395; first compound 0.3162 µM
  relative viability: 0.476
NCI-H1395; first compound 1 µM
  relative viability: 0.354
NCI-H1437; first compound 0.01 µM
  relative viability: 0.638
NCI-H1437; first compound 0.03162 µM
  relative viability: 0.622
NCI-H1437; first compound 0.1 µM
  relative viability: 0.721
NCI-H1437; first compound 0.3162 µM
  relative viability: 0.656
NCI-H1437; first compound 1 µM
  relative viability: 0.57
NCI-H1666; first compound 0.01 µM
  relative viability: 0.731
NCI-H1666; first compound 0.03162 µM
  relative viability: 0.907
NCI-H1666; first compound 0.1 µM
  relative viability: 0.924
NCI-H1666; first compound 0.3162 µM
  relative viability: 0.824
NCI-H1666; first compound 1 µM
  relative viability: 0.71
NCI-H1975; first compound 0.01 µM
  relative viability: 0.427
NCI-H1975; first compound 0.03162 µM
  relative viability: 0.391
NCI-H1975; first compound 0.1 µM
  relative viability: 0.439
NCI-H1975; first compound 0.3162 µM
  relative viability: 0.396
NCI-H1975; first compound 1 µM
  relative viability: 0.266
NCI-H2085; first compound 0.01 µM
  relative viability: 0.602
NCI-H2085; first compound 0.03162 µM
  relative viability: 0.693
NCI-H2085; first compound 0.1 µM
  relative viability: 0.672
NCI-H2085; first compound 0.3162 µM
  relative viability: 0.743
NCI-H2085; first compound 1 µM
  relative viability: 0.702
NCI-H2087; first compound 0.01 µM
  relative viability: 0.313
NCI-H2087; first compound 0.03162 µM
  relative viability: 0.378
NCI-H2087; first compound 0.1 µM
  relative viability: 0.411
NCI-H2087; first compound 0.3162 µM
  relative viability: 0.475
NCI-H2087; first compound 1 µM
  relative viability: 0.332
NCI-H2342; first compound 0.01 µM
  relative viability: 0.68
NCI-H2342; first compound 0.03162 µM
  relative viability: 0.731
NCI-H2342; first compound 0.1 µM
  relative viability: 0.805
NCI-H2342; first compound 0.3162 µM
  relative viability: 0.821
NCI-H2342; first compound 1 µM
  relative viability: 0.854
NCI-H358; first compound 0.01 µM
  relative viability: 0.229
NCI-H358; first compound 0.03162 µM
  relative viability: 0.311
NCI-H358; first compound 0.1 µM
  relative viability: 0.38
NCI-H358; first compound 0.3162 µM
  relative viability: 0.343
NCI-H358; first compound 1 µM
  relative viability: 0.224
NCI-H647; first compound 0.01 µM
  relative viability: 0.475
NCI-H647; first compound 0.03162 µM
  relative viability: 0.501
NCI-H647; first compound 0.1 µM
  relative viability: 0.441
NCI-H647; first compound 0.3162 µM
  relative viability: 0.356
NCI-H647; first compound 1 µM
  relative viability: 0.156
PC-3 [JPC-3]; first compound 0.01 µM
  relative viability: 0.892
PC-3 [JPC-3]; first compound 0.03162 µM
  relative viability: 0.869
PC-3 [JPC-3]; first compound 0.1 µM
  relative viability: 0.949
PC-3 [JPC-3]; first compound 0.3162 µM
  relative viability: 0.848
PC-3 [JPC-3]; first compound 1 µM
  relative viability: 0.592
SW 1573; first compound 0.01 µM
  relative viability: 0.565
SW 1573; first compound 0.03162 µM
  relative viability: 0.523
SW 1573; first compound 0.1 µM
  relative viability: 0.482
SW 1573; first compound 0.3162 µM
  relative viability: 0.324
SW 1573; first compound 1 µM
  relative viability: 0.172

Reference: the supplement of paper PMC10307832
